The term EC50 denotes the concentration giving half of the maximal effect. A low value points to an effect from little substance.

Sequence of human GPR40 receptor (O14842 whole entry): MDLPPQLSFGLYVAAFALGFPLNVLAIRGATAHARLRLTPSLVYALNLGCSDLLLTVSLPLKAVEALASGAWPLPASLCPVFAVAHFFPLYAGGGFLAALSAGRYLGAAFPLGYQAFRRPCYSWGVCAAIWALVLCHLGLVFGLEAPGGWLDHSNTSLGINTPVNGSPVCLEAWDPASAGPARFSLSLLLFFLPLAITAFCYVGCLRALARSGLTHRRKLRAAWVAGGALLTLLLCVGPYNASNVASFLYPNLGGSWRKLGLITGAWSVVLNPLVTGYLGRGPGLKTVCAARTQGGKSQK

This assay has as its target human GPR40 receptor (Homo sapiens, UniProt O14842). Kind of assay: IP1 accumulation measurements using the IPOne assay system. The assay is classed as cell-based. To be noted: 1321N1 cells stably expressing human GPR40; stimulation 1 h at 37° C. The procedure:
IP1 accumulation measurements using the IPOne assay system—1321N1 cells stably expressing human GPR40 receptor (Euroscreen, Belgium) are seeded 24 h before the assay in white 384-well plates in culture medium containing 10% FCS, 1% Na-Pyruvate and 400 μg/mL G418. IP1 is assayed according to the manufacturer's description (Cisbio Bioassays, France). In brief, the assay is started by substitution of the culture medium by stimulation buffer (Hepes 10 mM, CaCl2 1 mM, MgCl2 0.5 mM, KCl 4.2 mM, NaCl 146 mM, glucose 5.5 mM and LiCl 50 mM, pH 7.4). Cells are stimulated for 1 h at 37° C., 5% CO2 by addition of the compounds that are diluted in stimulation buffer containing LiCl. Assays are stopped by adding HTRF-conjugates (IP1-d2 and Anti-IP1 cryptate Tb) and lysis buffer, provided by the manufacturer. After an incubation time of 1 h at room temperature plates are measured using an EnVision™, Perkin Elmer. The obtained fluorescence ratios at 665/615 […] are then used to calculate the pEC50 values using Assay Explorer 3.3 Software (Accelrys, Inc.) by interpolation using an IP1 reference curve and subsequent sigmoidal curve fitting allowing for a variable hill slope.
With `Cc1ccc(Oc2ccc(F)c3c2CC[C@H]3Oc2ccc3c(c2)OC[C@H]3CC(=O)O)c(C#N)c1` [Example 23, {(S)-6-[(R)-4-(2-Cyano-4-methyl-phenoxy)-7-fluoro-indan-1-yloxy]-2,3-dihydro-benzofuran-3-yl}-acetic acid], the concentration giving a half-maximal response (EC50) came to 7 nM. With `N#Cc1cc(OC(F)(F)F)ccc1Oc1ccc(F)c2c1CC[C@H]2Oc1ccc2c(c1)OC[C@H]2CC(=O)O` [Example 26, {(S)-6-[(R)-4-(2-Cyano-4-trifluoromethoxy-phenoxy)-7-fluoro-indan-1-yloxy]-2,3-dihydro-benzofuran-3-yl}-acetic acid] the figure was 30 nM; with `Cc1nc2ccc(Oc3ccc(F)c4c3CC[C@H]4Oc3ccc4c(c3)OC[C@H]4CC(=O)O)cc2o1` [Example 58, {(S)-6-[(R)-7-Fluoro-4-(2-methyl-benzoxazol-6-yloxy)-indan-1-yloxy]-2,3-dihydro-benzofuran-3-yl}-acetic acid], 3 nM; with `O=C(O)C[C@@H]1COc2cc(O[C@@H]3CCc4c(Oc5ccncc5)ccc(F)c43)ccc21` [Example 11, {(S)-6-[(R)-7-Fluoro-4-pyrid-4-yloxy-indan-1-yloxy]-2,3-dihydro-benzofuran-3-yl}-acetic acid], 18 nM. The figure for `COc1cc(Oc2ccc(F)c3c2CC[C@H]3Oc2ccc3c(c2)OC[C@H]3CC(=O)O)ccc1C#N` [Example 37, {(S)-6-[(R)-4-(4-Cyano-3-methoxy-phenoxy)-7-fluoro-indan-1-yloxy]-2,3-dihydro-benzofuran-3-yl}-acetic acid] is 5 nM; for `N#Cc1cc(F)c(Oc2ccc(F)c3c2CC[C@H]3Oc2ccc3c(c2)OC[C@H]3CC(=O)O)c(F)c1` [Example 51, {(S)-6-[(R)-4-(4-cyano-2,6-difluoro-phenoxy)-7-fluoro-indan-1-yloxy]-2,3-dihydro-benzofuran-3-yl}-acetic acid] it is 18 nM. The figure for `O=C(O)C[C@@H]1COc2cc(O[C@@H]3CCc4c(Oc5ccc6ncccc6c5)ccc(F)c43)ccc21` [Example 20, {(S)-6-[(R)-7-Fluoro-4-Quinolin-6-yloxy-indan-1-yloxy]-2,3-dihydro-benzofuran-3-yl}-acetic acid] is 6 nM. `Cc1cccc(Oc2ccc(F)c3c2CC[C@H]3Oc2ccc3c(c2)OC[C@H]3CC(=O)O)n1` [Example 15, {(S)-6-[(R)-7-Fluoro-4-(6-methyl-pyrid-2-yloxy)-indan-1-yloxy]-2,3-dihydro-benzofuran-3-yl}-acetic acid]: the EC50 was found to be 31 nM. The figure for `Cc1cccc(C)c1Oc1ccc(F)c2c1CC[C@H]2Oc1ccc2c(c1)OC[C@H]2CC(=O)O` [Example 5, {(S)-6-[(R)-7-Fluoro-4-(2,6-dimethyl-phenoxy)-indan-1-yloxy]-2,3-dihydro-benzofuran-3-yl}-acetic acid] is 70 nM. The molecule `Cc1nc2cc(Oc3ccc(F)c4c3CC[C@H]4Oc3ccc4c(c3)OC[C@H]4CC(=O)O)ccc2s1` [Example 48, {(S)-6-[(R)-7-Fluoro-4-(2-methyl-benzothiazol-5-yloxy)-indan-1-yloxy]-2,3-dihydro-benzofuran-3-yl}-acetic acid] returned an EC50 of 7 nM. The figure for `Cc1nc2cc(Oc3ccc(F)c4c3CC[C@H]4Oc3ccc4c(c3)OC[C@H]4CC(=O)O)ccc2o1` [Example 55, {(S)-6-[(R)-7-Fluoro-4-(2-methyl-benzoxazol-5-yloxy)-indan-1-yloxy]-2,3-dihydro-benzofuran-3-yl}-acetic acid] is 6 nM. With `COc1ccc(Oc2ccc(F)c3c2CC[C@H]3Oc2ccc3c(c2)OC[C@H]3CC(=O)O)cn1` [Example 34, {(S)-6-[(R)-7-Fluoro-4-(2-methoxy-pyrid-5-yloxy)-indan-1-yloxy]-2,3-dihydro-benzofuran-3-yl}-acetic acid] the figure was 5 nM; with `Cc1nccc(Oc2ccc(F)c3c2CC[C@H]3Oc2ccc3c(c2)OC[C@H]3CC(=O)O)n1` [Example 9, {(S)-6-[(R)-7-Fluoro-4-(2-methyl-pyrimid-4-yloxy)-indan-1-yloxy]-2,3-dihydro-benzofuran-3-yl}-acetic acid], 155 nM.

Molecule `O=C(O)C[C@@H]1COc2cc(O[C@@H]3CCc4c(Oc5ccccc5)ccc(F)c43)ccc21` [Example 1, {(S)-6-[(R)-7-Fluoro-4-phenoxy-indan-1-yloxy]-2,3-dihydro-benzofuran-3-yl}-acetic acid] displayed an EC50 of 4 nM.

`O=C(O)C[C@@H]1COc2cc(O[C@@H]3CCc4c(Oc5ccnc(C(F)(F)F)c5)ccc(F)c43)ccc21` [Example 32, {(S)-6-[(R)-7-Fluoro-4-(2-trifluoromethyl-pyrid-4-yloxy)-indan-1-yloxy]-2,3-dihydro-benzofuran-3}-acetic acid]: the response was half-maximal at 6 nM (EC50).

The molecule `Cc1nc2ccc(Oc3ccc(F)c4c3CC[C@H]4Oc3ccc4c(c3)OC[C@H]4CC(=O)O)cc2s1` [Example 59, {(S)-6-[(R)-7-Fluoro-4-(2-methyl-benzothiazol-6-yloxy)-indan-1-yloxy]-2,3-dihydro-benzofuran-3-yl}-acetic acid] displayed an EC50 of 5 nM. `O=C(O)C[C@@H]1COc2cc(O[C@@H]3CCc4c(Oc5ccc(C(F)(F)F)cn5)ccc(F)c43)ccc21` [Example 14, {(S)-6-[(R)-7-Fluoro-4-(5-trifluoromethyl-pyrid-2-yloxy)-indan-1-yloxy]-2,3-dihydro-benzofuran-3-yl}-acetic acid] gave an EC50 of 26 nM. With `COc1ncc(Oc2ccc(F)c3c2CC[C@H]3Oc2ccc3c(c2)OC[C@H]3CC(=O)O)cn1` [Example 35, {(S)-6-[(R)-7-Fluoro-4-(2-methoxy-pyrimid-5-yloxy)-indan-1-yloxy]-2,3-dihydro-benzofuran-3-yl}-acetic acid] the figure was 79 nM. Take `Cc1cc(C#N)ccc1Oc1ccc(F)c2c1CC[C@H]2Oc1ccc2c(c1)OC[C@H]2CC(=O)O` [Example 24, {(S)-6-[(R)-4-(4-Cyano-2-methyl-phenoxy)-7-fluoro-indan-1-yloxy]-2,3-dihydro-benzofuran-3-yl}-acetic acid]: the response was half-maximal at 3 nM (EC50). The figure for `O=C(O)C[C@@H]1COc2cc(O[C@@H]3CCc4c(Oc5ccc(CO)c(F)c5)ccc(F)c43)ccc21` [Example 28, {(S)-6-[(R)-7-Fluoro-4-(3-fluoro-4-hydroxymethyl-phenoxy)-indan-1-yloxy]-2,3-dihydro-benzofuran-3-yl}-acetic acid] is 8 nM; for `Cc1noc2ccc(Oc3ccc(F)c4c3CC[C@H]4Oc3ccc4c(c3)OC[C@H]4CC(=O)O)cc12` [Example 60, {(S)-6-[(R)-7-Fluoro-4-(3-methyl-benzo[d]isoxazol-5-yloxy)-indan-1-yloxy]-2,3-dihydro-benzofuran-3-yl}-acetic acid] it is 3 nM. The figure for `Cc1cc(Oc2ccc(F)c3c2CC[C@H]3Oc2ccc3c(c2)OC[C@H]3CC(=O)O)cc(C)c1C#N` [Example 49, {(S)-6-[(R)-4-(4-Cyano-3,5-dimethyl-phenoxy)-7-fluoro-indan-1-yloxy]-2,3-dihydro-benzofuran-3-yl}-acetic acid] is 12 nM; for `Cn1ncc2ccc(Oc3ccc(F)c4c3CC[C@H]4Oc3ccc4c(c3)OC[C@H]4CC(=O)O)cc21` [Example 46, {(S)-6-[(R)-7-Fluoro-4-(1-methyl-1H-indazol-6-yloxy)-indan-1-yloxy]-2,3-dihydro-benzofuran-3-yl}-acetic acid] it is 3 nM.

The record behind these values is patent publication US8815864B2, “Indanyloxydihydrobenzofuranylacetic acids” (Boehringer Ingelheim International GmbH, priority 2012, dated 2014).
